Assay results as given in the supplement of paper PMC11061612.

How the values were obtained:
[1] = system: PCI-30 (Head and Neck Carcinoma); assay: combination Emax (second highest fraction inhibited in the dose matrix, 72 h); higher = more inhibition; extreme values may be limits of the assay
In short: (§1)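 Cell lines grown in DMEM/F12 or RPMI with 10% FBS were plated in 1536-well plates and held 24 hours at 37°C, 5% CO2 before 72 hours of exposure to two-drug dose matrices, with DMSO typically at 0.2%. CellTiter-Glo 2.0 luminescence gave viability, which was converted to inhibition. Vehicle wells were set to 0 and blank wells to 1. Combination Emax is the second-highest inhibition in the matrix, and Bliss excess is the observed combination effect minus the expected EA + EB − EA·EB, where EA and EB are the single-agent effects.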

[2] = system: EN (Endometrial Carcinoma); assay: as above
In short: as §1

[3] = system: RT-112 (Bladder Carcinoma); assay: as above
In short: as §1

[4] = system: SUP-T1 (T-Lymphoblastic Leukemia); assay: as above
In short: as §1

[5] = system: SW1116 (Colorectal Carcinoma); assay: as above
In short: as §1

[6] = system: LoVo (Colorectal Carcinoma); assay: as above
In short: as §1

[7] = system: HARA (Squamous Cell Lung Carcinoma); assay: as above
In short: as §1

[8] = system: Hs-633T (Other Solid Carcinomas); assay: as above
In short: as §1

[9] = system: NCI-H69 (Small Cell Lung Carcinoma); assay: as above
In short: as §1

[10] = system: NCI-H2461 (Mesothelioma); assay: as above
In short: as §1

[11] = system: SU-DHL-6 (B-Cell Non-Hodgkin's Lymphoma); assay: Bliss excess, mean over the matrix (fraction); higher = more synergy
In short: as §1

[12] = system: LoVo (Colorectal Carcinoma); assay: as above
In short: as §1

[13] = system: Mewo (Melanoma); assay: as above
In short: as §1

[14] = system: CAL-54 (Kidney Carcinoma); assay: as above
In short: as §1

[15] = system: RPMI-6666 (Non-Cancerous); assay: as above
In short: as §1

[16] = system: SH-4 (Melanoma); assay: as above
In short: as §1

[17] = system: SW1271 (Small Cell Lung Carcinoma); assay: as above
In short: as §1

[18] = system: MDA-MB-468 (Breast Carcinoma); assay: as above
In short: as §1

[19] = system: K5 (Thyroid Gland Carcinoma); assay: as above
In short: as §1

[20] = system: NCI-H2795 (Mesothelioma); assay: as above
In short: as §1
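For Bliss excess, mean over the matrix in this document: after 72 h of two-drug dosing.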

Row | SMILES | combination Emax [1] | combination Emax [2] | combination Emax [3] | combination Emax [4] | combination Emax [5] | combination Emax [6] | combination Emax [7] | combination Emax [8] | combination Emax [9] | combination Emax [10] | Bliss excess [11] | Bliss excess [12] | Bliss excess [13] | Bliss excess [14] | Bliss excess [15] | Bliss excess [16] | Bliss excess [17] | Bliss excess [18] | Bliss excess [19] | Bliss excess [20]
1 | C[C@@H]1COCCN1c1cc(C2([S@](C)(=N)=O)CC2)nc(-c2ccnc3[nH]ccc23)n1 [AZD6738] + C1CC(C1)(C(=O)[O-])C(=O)[O-].N.N.[Pt+2] [Carboplatin] (first compound max 10 µM, 7x7, partner max 10 µM) | 0.45 | 0.537 | 0.679 | 0.719 | 0.247 | 0.8 | 0.853 | 0.836 | 0.373 | 0.646 | -0.0174 | -0.0743 | -0.0192 | -0.0355 | -0.0614 | -0.057 | -0.0547 | -0.0511 | -0.0728 | -0.0819
2 | Cc1c2c(nn1C)CSCc1cc(n(C)n1)CSc1cc(c3ccccc3c1)OCCCc1c(C(=O)O)n(C)c3c-2c(Cl)ccc13 [AZD5991] + CS(=O)(=O)CCNCc1ccc(-c2ccc3ncnc(Nc4ccc(OCc5cccc(F)c5)c(Cl)c4)c3c2)o1 [Lapatinib] (first compound max 1 µM, 7x7, partner max 10 µM) | 0.257 | 0.519 | 0.827 | 0.488 | 0.395 | 0.491 | 0.786 | 0.206 | 0.443 | 0.332 | 0.0085 | -0.0052 | -0.013 | 0.0368 | -0.1 | -0.01 | -0.0749 | -0.0357 | -0.0063 | -0.016
3 | CN(CCO)CC[C@H](CSc1ccccc1)Nc1ccc(S(=O)(=O)NC(=O)c2ccc(N3CCC([C@@H](O)c4ccccc4-c4ccc(Cl)cc4)CC3)cc2)cc1S(=O)(=O)C(F)(F)F [AZD4320] + CC(=O)O[C@H]1C(=O)[C@@]2(C)[C@H]([C@H](OC(=O)c3ccccc3)[C@]3(O)C[C@H](OC(=O)[C@H](O)[C@@H](NC(=O)c4ccccc4)c4ccccc4)C(C)=C1C3(C)C)[C@]1(OC(C)=O)CO[C@@H]1C[C@@H]2O [Paclitaxel] (first compound max 1 µM, 7x7, partner max 3 µM) | 0.875 | 0.757 | 0.991 | 0.852 | 0.586 | 0.746 | 0.999 | 1 | 0.991 | 0.75 | 0.0083 | -0.0406 | 0.0548 | -0.0202 | 0.017 | 0.0813 | 0.108 | 0.0898 | 0.0018 | 0.0621
4 | CN(CCO)CC[C@H](CSc1ccccc1)Nc1ccc(S(=O)(=O)NC(=O)c2ccc(N3CCC([C@@H](O)c4ccccc4-c4ccc(Cl)cc4)CC3)cc2)cc1S(=O)(=O)C(F)(F)F [AZD4320] + CS(=O)(=O)CCNCc1ccc(-c2ccc3ncnc(Nc4ccc(OCc5cccc(F)c5)c(Cl)c4)c3c2)o1 [Lapatinib] (first compound max 1 µM, 7x7, partner max 10 µM) | 0.369 | 0.229 | 0.351 | 0.866 | 0.823 | 0.562 | 0.906 | 0.452 | 0.997 | 0.512 | 0.0749 | -0.0216 | -0.0386 | 0.0171 | -0.0208 | -0.0411 | -0.0178 | -0.0457 | 0.0213 | 0.0148
5 | Cc1c2c(nn1C)CSCc1cc(n(C)n1)CSc1cc(c3ccccc3c1)OCCCc1c(C(=O)O)n(C)c3c-2c(Cl)ccc13 [AZD5991] + CC(=O)O[C@H]1C(=O)[C@@]2(C)[C@H]([C@H](OC(=O)c3ccccc3)[C@]3(O)C[C@H](OC(=O)[C@H](O)[C@@H](NC(=O)c4ccccc4)c4ccccc4)C(C)=C1C3(C)C)[C@]1(OC(C)=O)CO[C@@H]1C[C@@H]2O [Paclitaxel] (first compound max 1 µM, 7x7, partner max 3 µM) | 0.394 | 0.878 | 1 | 0.744 | 0.438 | 0.655 | 0.982 | 0.95 | 0.89 | 0.443 | 0.0125 | -0.122 | 0.0103 | -0.0639 | -0.0139 | -0.0331 | -0.0228 | -0.051 | -0.0361 | 0.044
6 | CN(CCO)CC[C@H](CSc1ccccc1)Nc1ccc(S(=O)(=O)NC(=O)c2ccc(N3CCC([C@@H](O)c4ccccc4-c4ccc(Cl)cc4)CC3)cc2)cc1S(=O)(=O)C(F)(F)F [AZD4320] + C[C@@H](Nc1cc(F)cc(F)c1)c1cc(C(=O)N(C)C)cc2c(=O)cc(N3CCOCC3)oc12 [AZD8186] (first compound max 1 µM, 7x7, partner max 3 µM) | 0.321 | 0.354 | 0.435 | 0.887 | 0.275 | 0.6 | 0.361 | 0.503 | 0.885 | 0.337 | 0.0068 | 0.0355 | 0.0471 | 0.0533 | 0.0298 | -0.0042 | -0.0447 | 0.0195 | -0.0505 | 0.0426
